Results on three compounds are retold here after patent US20170246137A1, “SULFESTROL FOR TREATING CANCER” (CHAMAELEO PHARMA BVBA, priority 2012, published 2017).

Molecules are shown by their SMILES.

Series [1] concerns platelet-rich plasma (PRP). Nature of the series: Platelet-aggregation-inducing effects in platelet-rich plasma, absorbance 630 nm. The format is cell-based. The following applies: 7 minutes, human PRP. The protocol:
Blood necessary to generate PRP was obtained from 4 healthy human volunteers. 100 ml of fresh venous blood from each donor was isolated directly into tubes containing 1/10th volume of the anti-coagulant Tri-Sodium Citrate (3.2% w/v). The blood and anti-coagulant were immediately mixed and the final concentration of Tri-Sodium Citrate was 0.0106 M.
PRP was prepared by centrifugation of anti-coagulated blood at 180 g for 10 minutes at room temperature. The cloudy yellow supernatant containing the platelets was removed and placed into a clean polypropylene tube. Platelet-poor plasma (PPP) was prepared by centrifuging the remaining sample at 1,200 g for 20 minutes at room temperature. The PRP was adjusted to a suitable platelet count and absorbance at 630 nm by addition of PPP.
All three compounds were dissolved in 100% DMSO to give a stock concentration of 60 mM. […] […] 100 nM gamma thrombin (Cambridge bioscience) was used as control for platelet aggregation. 90 μl aliquots of PRP were added to 96 wells plates. A baseline absorbance reading was taken at 630 nm. 5 μl of the compounds and gamma thrombin control was added to the appropriate PRP.
The plates were incubated at room temperature for 7 minutes on a plate shaker with continuous shaking. A second A630 nm reading was made after the 7 minutes incubation to measure any platelet aggregation induced by the compounds.

A short description of series [2]: In vitro metabolism in human liver microsomes (STS and CYP). The format is in vitro ADME. As to conditions: for Contribution to metabolism / half-life at 5 μM / Half-life: 5 μM; for half-life at 5 μM: human, liver microsomes. The protocol:
In vitro metabolism pathways of DES, Mono-Sulfestrol and Di-Sulfestrol in human liver microsomes were investigated.
Special emphasis was put on desulfatation by steroid sulfatase (STS) and oxidation by cytochrome P (CYP) metabolism. Liver microsomes (Celsis in vitro Technologies) were used at a concentration of 0.5 mg/ml in a volume of 600 μl phosphate buffer pH 7.4. Estrone-3-sulfate was used as positive control.
5 μM of each compound (test and control compound) was added to the liver microsomes and the mixture was incubated at 37° C. for 5, 10, 20, 30, 50, 90 and 120 minutes. After incubation, aliquots of 45 μl were taken which were subsequently quenched with 150 μl ice cold methanol. Aliquots were incubated ≧1 h at −20° C. for protein precipitation. After precipitation, samples were centrifuged and remaining supernatant was used for analysis with LC-MS/MS. Half life of the compounds, speed of metabolism or intrinsic clearance (Clint), and contribution to metabolism of CYP and STS metabolism were calculated based on the data obtained at each time point.
Background: Liver microsomes are vesicles of endoplasmic reticulum, rich in cytochrome P450 enzymes.

The subject of another series is LNCaP. Nature of the series: In vitro direct cytotoxicity, Cell titer Blue viability, 72 hrs. The format is cell-based. The protocol: (§1) Cells were harvested, washed, re-suspended into growth medium and counted.
(§2) Stocks of all compounds were then serially diluted. […] Positive control was Taxotere. Taxotere was diluted in 100% DSMO to give a stock concentration of 1 mM. Stock was serially diluted. Final concentrations to which cells were exposed were 1000, 333.3, 111.1, 37.0, 12.3, 4.1, 1.4, 0.5, and 0.2 nM.

A further series concerns DU-145. Described as above. The format is cell-based. The protocol:
as §1, §2

Series [3] concerns MCF-7 breast cancer cells. As to conditions: cited from earlier work.
The conditions of series [4]: patients suffering from prostate cancer, 5 mg p.o. per day; cited from earlier work.
In the next series the test system is prostate cancer cells. As to conditions: cited from earlier work.
A short description of series [5]: Estrogenic activity: body weight and plasma cholesterol levels. The following applies: for Mean bodyweight: in g (unit assumed). The format is in vivo, male Sprague-Dawley rats. The protocol: Estrogenic activity was determined by measuring body weight and plasma cholesterol levels.
Each animal was dosed three times a day with vehicle or test compound (1st dose 7:30-8:00, 2nd dose 12:30-13:00, 3rd dose 17:00-17:30) for 14 consecutive days.
After 14 days treatment, blood was collected from the animals via cardiac puncture 4 hrs past final dosing to analyze plasma cholesterol levels. The blood was immediately transferred to a tube containing 0.5M EDTA anticoagulant. It was mixed gently and centrifuged at 1000×g at 4° C. for 15 min. Plasma was aspirated from the centrifuged blood samples, quick frozen on dry ice and stored at −80° C. for later use.
Plasma cholesterol levels were determined using a commercial ELISA kit obtained from NovaTeinBio (BG-RAT11262). Standard protocol accompanied by the kit was used without any adjustments.

Series [6] has as its system DU-145 prostate cancer cells. As to conditions: cited from earlier work.
A further series has as its system MDA-MB-231. Nature of the series: In vitro direct cytotoxicity, Cell titer Blue viability, 72 hrs. The following applies: MDA-MB231. The protocol:
(§3) Cells were maintained in vitro in RPMI 1640 containing 10% (v/v) heat inactivated FBS and 2 mM L-glutamine (growth media) at 37° C. in 5% CO2 and humidified conditions. Cells were harvested, washed, resuspended into growth medium and counted. The cells were re-suspended into assay media (RPMI 1640+1% (v/v) heat inactivated FBS+ and 2 mM L-glutamine) at 0.5-1×10^5 cells/ml (dependent upon cell type) and plated into 96-well assay plates (Corning, black-wall plates) in 50 ul/well aliquots.
(§4) Plates were incubated overnight at 37° C. in 5% humidified CO2 prior to addition of the compounds. […] Stocks of all compounds were then serially diluted. Final concentrations to which cells were exposed were 300, 150, 75, 37.5, 18.75, 9.4, 4.7, 2.3, 1.2, 0.6 μM. Positive control was Cisplatin. Cisplatin was diluted in 1% FBS media to give a stock concentration of 1 mM. Cisplatin stock was then serially diluted. Final concentrations to which cells were exposed were 100, 50, 25, 12.5, 6.3, 3.1, 1.6, 0.8, 0.4, 0.2 μM.
(§5) Plates were incubated for 72 hrs at 37° C. in 5% humidified CO2 after addition of the compounds. Viability of the cells was assessed with the Cell titer Blue™ (Promega) assay. 10 μl of Cell titer Blue™ reagents was added to each test/blank well. Plates were incubated 3 h at 37° C. in 5% humidified CO2 prior to analysis. Fluorescence was measured with a Flex II station plate reader. Excitation wavelength was 570 nm, emission wave length was 600 nm, cut off was 590 nm. Raw data was processed by GraphPad Prism to calculate mean, standard deviation and IC50 values.
On the technique in general: The colour change of resazurin is a common sign of viable cells or microbes.

The next series deals with MCF7. The description is as above. As to conditions: MCF7. The protocol: as §3, §4, §5
Where [7] appears, read: + NADPH + 667-Coumate (STS inactive, CYP active).
Setting [8] is: nothing added (STS active, CYP inactive).

One may read the half-life as the time needed for the level to fall by half in the phase considered. As usually defined, the IC50 is the midpoint of a concentration-inhibition curve. Higher therefore signals weaker potency.

`CC/C(=C(/CC)c1ccc(O)cc1)c1ccc(O)cc1` [DES, diethylstilbestrol, reference compound]: the “Absorbance (630 nm)” value in series [1] (2.3 μM, high absorbance = low aggregation) is recorded as 0.264 ± 0.030; in series [1] (4.7 μM) it was 0.266 ± 0.031; in series [1] (9.4 μM) it was 0.264 ± 0.030; in series [1] (18.75 μM), 0.264 ± 0.030; in series [1] (37.5 μM), 0.264 ± 0.030; in [1] (75 μM), 0.268 ± 0.032. For the same compound, the “Absorbance (630 nm)” value in series [1] (150 μM) is 0.263 ± 0.033. In series [2], the “metabolism pathway in human liver microsomes (in words)” value was “only processed by CYP metabolism”. In addition, the Contribution to metabolism is recorded as 131% in series [2] (setting [7]) and 9% in [2] (setting [8]). The half-life at 5 μM in [2] (pH 7.4, + NADPH (STS and CYP active)) came out at 18 min; in series [2] (pH 7.4, nothing added (STS active, CYP inactive)), 194 min; in [2] (pH 7.4, with 667-Coumate (STS inhibitor; concentration not stated), + NADPH + 667-Coumate (STS inactive, CYP active)), 14 min. Moreover, the “cytotoxicity in vitro (in words)” value in the series on LNCaP, with DU-145 (DU-145), in the series with MDA-MB-231 and with MCF7 was “cytotoxic” in each case. In addition, the “effect on cell growth in vitro (in words)” value in [3] is “reduced cell growth in vitro”. For the same compound, the “increase of non-cancer related deaths, mostly cardiovascular” value in series [4] is 36%. For the same compound, in the series with prostate cancer cells, the “concentrations that do not influence prostate cancer cell growth” value was “up to 100 ng/ml”. For the same compound, the “minimal concentration to induce cytotoxic effects” value in the series on prostate cancer cells is 1 µg/mL. Further, the Mean bodyweight in [5] (Day 0, DES 1.5 mg/kg per day, Di-Sulfestrol 3 mg/kg per day, three doses a day) is 382 ± 7.8; in series [5] (Day 2) it was 379 ± 9.3; in series [5] (Day 4), 361 ± 8.6; in [5] (Day 6), 350 ± 8.0; in series [5] (Day 8), 342 ± 8.0; in series [5] (Day 10), 341 ± 7.8. For the same compound, the figures for the Mean bodyweight in series [5] (Day 12) and in series [5] (Day 14) were 337 ± 8.4 and 339 ± 9.80, respectively. Besides, in series [5] (after 14 days treatment, 4 hrs past final dosing, DES 1.5 mg/kg per day, Di-Sulfestrol 3 mg/kg per day), the “Cholesterol (plasma)” value was 14.9 ± 0.724 nmol/L. For the same compound, the “estrogenic activity in rats (in words)” value in series [5] (lowering body weight and cholesterol levels) is listed as “show estrogenic activity”. Moreover, the “cytotoxic effects (in words)” value in series [6] is “cytotoxic effects”.

Consider `C[C@]12CC[C@@H]3c4ccc(OS(=O)(=O)O)cc4CC[C@H]3[C@@H]1CCC2=O` [E-3-S, Estrone-3-sulfate], for which, in series [2] (setting [7]), the Contribution to metabolism was 19% and the Half-life was determined as 62 min. Further, in [2] (setting [8]), the Contribution to metabolism stood at 44% and the Half-life stood at 27 min.

Consider `CC(=O)O[C@@]12CO[C@@H]1C[C@H](O)[C@@]1(C)C(=O)[C@H](O)C3=C(C)[C@@H](OC(=O)[C@H](O)[C@@H](NC(=O)OC(C)(C)C)c4ccccc4)C[C@@](O)([C@@H](OC(=O)c4ccccc4)[C@H]21)C3(C)C` [Taxotere, reference compound], for which the IC50 was 2 nM with LNCaP (Homo sapiens, hormone-dependent prostate cancer cell line, 72 hrs) and 4 nM with DU-145 (Homo sapiens, DU-145, hormone-independent prostate cancer cell line, 72 hrs).
